Molecules are shown by their SMILES.

The subject of this assay is B16F10 melanoma tumors. Kind of assay: B16F10 transplanted melanoma model. The following applies: guanabenz alone, 2.5 mg/kg i.p. daily from 7 days after inoculation, vs PBS and isotype; FIG. 9. Type of assay: in vivo, mouse. The procedure: Gender and age matched CD57BL/6 wild-type mice were used in the B16F10 transplanted melanoma model.
Gender-matched, 7-9 weeks old CD57BL/6 wild-type mice were subcutaneously injected with 1 million of B16F10 tumor cells. Mice were randomized based on the tumor size one week after the injection of tumor cells. 7 days after tumor inoculation, daily injections of guanabenz (2.5 mg/kg, i.p.) or vehicle (PBS, i.p.) were administered to the mice. Mice then received 4 injections (intraperitoneally also referred to as i.p.) of a dose of 200 μg/mouse anti-PD-1 antibody (BioXcell, clone RMP1-14) or RatIgG2a isotype (clone 2A3, Bio-X-Cell) at 3-day intervals starting 1 day after guanabenz or vehicle administration.

For the molecule `NC(N)=N/N=C/c1c(Cl)cccc1Cl` [guanabenz, 2-[(E)-(2,6-dichlorophenyl)methylideneamino]guanidine], the “growth of B16F10 melanoma tumors” value is on record as “did significantly reduce”.

The values are drawn from patent US20210353749A1, “GUANABENZ AS AN ADJUVANT FOR IMMUNOTHERAPY” (UNIVERSITÉ CATHOLIQUE DE LOUVAIN, priority 2018, published 2021).
